Literature values in patent publication US20240188563A1, “CATHETER LOCK SOLUTIONS INCORPORATING NITRIC OXIDE RELEASING LIPOSOMES” (Becton, Dickinson and Company, priority 2022, published 2024).

Test system: platelets
Settings: extracorporeal circuit

## CC(=O)N[C@H](C(=O)O)C(C)(C)SN=O [SNAP only, S-nitroso-N-acetyl penicillamine]
  Platelet count after 4 h (% of initial): vs. 50% (SNAP only)
